Converted amounts (≈) assume the structure as drawn. Like-named read-outs stand apart in the source and are kept apart here.
Key:
[1] = tested on: KRAS G12V-dependent Ba/F3 cells; test: Ba/F3 proliferation assay, KRAS G12V; assay type: cell-based; details: AlamarBlue;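 note: proliferation IC50 in KRAS G12V-dependent Ba/F3 cells read by AlamarBlue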
Summary of the method: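 Transforming KRAS G12 mutants replaced IL-3 dependence in retrovirally engineered Ba/F3 cells, with puromycin omitted about ten days before testing. Growth under compound was quantified with an AlamarBlue fluorescent viability stain, in duplicate, by curve fitting.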

AsPC-1 cells = test: AsPC-1 CTG proliferation assay (120 h) (pancreatic cancer, G12D); assay type: cell-based
Summary of the method: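 AsPC-1 cells (KRAS G12D), 2000/well in RPMI with 10% FCS, seeded overnight, then treated with compound for 120 h at 37 °C. Viability by CellTiter-Glo luminescence as percent of DMSO control. IC50 from a four-parameter non-linear fit.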

SAS cells = test: SAS CTG proliferation assay (120 h) (HNSCC, wt amplified); assay type: cell-based
Summary of the method: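 SAS cells plated at 300 per well in DMEM:F12 with 10% FCS and left overnight, then given compounds acoustically. After 120 h exposure, viability read by CellTiter-Glo as percent of DMSO control. IC50 from four-parameter non-linear regression.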

LOVO cells = test: LOVO CTG proliferation assay (120 h) (CRC, G13D); assay type: cell-based; details: CTG 120 h
Summary of the method: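 LOVO cells, 1000 per well in DMEM + 10% FCS, were plated overnight and then dosed with compound from DMSO stock. After 120 h at 37 °C, viability was read by CellTiter-Glo luminescence as a percentage of DMSO controls. IC50 was derived by four-parameter non-linear regression.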

[2] = Solubility measurement (DMSO solution method), McIlvaine buffer pH 4.5 or 6.8; assay type: physicochemical; details: DMSO stock diluted to 250 μM, 24 h shaking at ambient temperature; for solubility at 24 h: aqueous buffer, kinetic from dmso stock
Summary of the method: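 DMSO stock diluted into McIlvaine buffer, pH 4.5 or 6.8, to 250 µM final, shaken 24 h at ambient temperature. Precipitate removed by filtration; filtrate quantified by LC-UV against a fully dissolved reference in acetonitrile/water 1:1.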

[3] = McIlvaine buffer pH 4.5, read-out: solubility pH 4.5
[4] = McIlvaine buffer pH 6.8, read-out: solubility pH 6.8

| SMILES | IC50 ([1]; Mus musculus, BaF3, 72 h) [nM] | IC50 (AsPC-1 cells; Homo sapiens, ASPC1) [nM] | IC50 (LOVO cells; Homo sapiens) [nM] | solubility at 24 h [2, 3] [µg/mL] | solubility at 24 h [2, 4] [µg/mL] | IC50 (SAS cells) [nM] | IC50 ([1]; 72 h) [nM] | IC50 (AsPC-1 cells) [nM] | IC50 (LOVO cells) [nM] | solubility pH 4.5 ([2]; McIlvaine buffer pH 4.5) [μg/ml] | solubility pH 6.8 ([2]; McIlvaine buffer pH 6.8) [μg/ml] |
| --- | --- | --- | --- | --- | --- | --- | --- | --- | --- | --- | --- |
| C[C@H](Oc1cc(N2CCNC3(COC3)C2)nc(-c2noc3c2CCC[C@@]32CCCc3sc(N)c(C#N)c32)n1)[C@@H]1C[C@@H](F)CN1C [II-150] | 77 | 27 | 81 | > 149 | 57 (≈ 89.8 µM) | 91 |  |  |  |  |  |
| C[C@H](Oc1cc(-n2cc3ccn([C@H]4CCOC4)c(=O)c3n2)nc(-c2noc3c2CCC[C@@]32CCCc3sc(N)c(C#N)c32)n1)[C@@H]1CCCN1C [II-202] | 6 | 380 | 103 | > 166 | 58 (≈ 83.6 µM) | 21 |  |  |  |  |  |
| C[C@H](Oc1cc(N2CCN(C)C3(CCOC3)C2)nc(-c2noc3c2CCC[C@@]32CCCc3sc(N)c(C#N)c32)n1)[C@@H]1C[C@@H](F)CN1C (stereo partly drawn) [II-151] | 655 | 714 | 1060 | > 161 | < 1 | 161 |  |  |  |  |  |
| C[C@H](Oc1cc(N2CCNC3(CC3)C2)nc(-c2noc3c2CCC[C@@]32CCCc3sc(N)c(C#N)c32)n1)[C@@H]1C[C@@H](F)CN1C [II-165] | 121 | 25 | 303 | > 142 | 49 (≈ 79.2 µM) | 437 |  |  |  |  |  |
| CO[C@@H]1C[C@@H]([C@H](C)Oc2cc(N3CCN(C)C4(COC4)C3)nc(-c3noc4c3CCC[C@@]43CCCc4sc(N)c(C#N)c43)n2)N(C)C1 [II-153] | 2380 | 577 | 283 | > 135 | 103 (≈ 156 µM) | 199 |  |  |  |  |  |
| COCCNC(=O)c1ccn(-c2cc(O[C@@H](C)[C@@H]3CCCN3C)nc(-c3noc4c3CCC[C@@]43CCCc4sc(N)c(C#N)c43)n2)n1 [II-195] | 2 | 282 | 12 | 131 (≈ 199 µM) | 71 (≈ 108 µM) | 37 |  |  |  |  |  |
| CC(C)N1CCCN(c2cc(-n3ccnc3)nc(-c3noc4c3CCC[C@@]43CCCc4sc(N)c(C#N)c43)n2)[C@@H](C)C1 [II-169] | 61 | 3730 | 553 | > 124 | 13 (≈ 22.3 µM) | 4410 |  |  |  |  |  |
| C[C@H](Oc1cc(-n2cc3ccn(C4CCOCC4)c(=O)c3n2)nc(-c2noc3c2CCC[C@@]32CCCc3sc(N)c(C#N)c32)n1)[C@@H]1CCCN1C [II-206] | 3 | 194 | 31 | 17 (≈ 24 µM) | 2 (≈ 2.83 µM) | 25 |  |  |  |  |  |
| CO[C@@H]1C[C@@H]([C@H](C)Oc2cc(N3CCN(C)C4(CC4)C3)nc(-c3noc4c3CCC[C@@]43CCCc4sc(N)c(C#N)c43)n2)N(C)C1 [II-152] | 1190 | 526 | 650 | > 132 | 61 (≈ 94.6 µM) | 4230 |  |  |  |  |  |
| C[C@H](Oc1cc(N2CCNC[C@@]23CCOC3)nc(-c2onc3c2CCC[C@@]32CCCc3sc(N)c(C#N)c32)n1)[C@@H]1CCCN1C [I-13] | 821 | 1550 | 1510 | > 148 | > 150 | 294 |  |  |  |  |  |
| C[C@H](Oc1nc(-c2noc3c2CCC[C@@]32CCCc3sc(N)c(C#N)c32)nc(N2C[C@H](C)NC3(CC3)C2)c1F)[C@@H]1C[C@@H](F)CN1C [II-157] | 258 | 129 | 136 | > 147 | < 1 | 1190 |  |  |  |  |  |
| C[C@H](Oc1cc(N2CCN(C)C3(CC3)C2)nc(-c2noc3c2CCC[C@@]32CCCc3sc(N)c(C#N)c32)n1)[C@@H]1C[C@@H](F)CN1C [II-149] | 412 | 257 | 270 | > 164 | < 1 | 849 |  |  |  |  |  |
| C[C@H](Oc1cc(-n2ccc(C(=O)N[C@H]3CCOC3)n2)nc(-c2noc3c2CCC[C@@]32CCCc3sc(N)c(C#N)c32)n1)[C@@H]1CCCN1C [II-193] |  |  |  |  |  | 10 | 2 | 176 | 12 | 15 | <1 |
| CO[C@H]1CCN(C)[C@@H]1[C@H](C)Oc1cc(-n2ccc(C(=O)N[C@@H]3CCOC3)n2)nc(-c2noc3c2CCC[C@@]32CCCc3sc(N)c(C#N)c32)n1 [II-197] | 1 | 226 | 14 | > 173 | 5 (≈ 7.14 µM) | 8 |  |  |  |  |  |

Second part, led by results:

| IC50 ([1]; Mus musculus, BaF3, 72 h) [nM] | IC50 (AsPC-1 cells; Homo sapiens, ASPC1) [nM] | IC50 (LOVO cells; Homo sapiens) [nM] | solubility at 24 h [2, 3] [µg/mL] | solubility at 24 h [2, 4] [µg/mL] | SMILES | IC50 (SAS cells) [nM] | IC50 ([1]; 72 h) [nM] | IC50 (AsPC-1 cells) [nM] | IC50 (LOVO cells) [nM] | solubility pH 4.5 ([2]; McIlvaine buffer pH 4.5) [μg/ml] | solubility pH 6.8 ([2]; McIlvaine buffer pH 6.8) [μg/ml] |
| --- | --- | --- | --- | --- | --- | --- | --- | --- | --- | --- | --- |
| 26 | 778 | 193 | > 139 | > 128 | C[C@H](Oc1cc(-n2cc3c(n2)CNC3)nc(-c2noc3c2CCC[C@@]32CCCc3sc(N)c(C#N)c32)n1)[C@@H]1CCCN1C [II-168] | 441 |  |  |  |  |  |
| 4 | 411 | 13 | 116 (≈ 173 µM) | 31 (≈ 46.3 µM) | C[C@H](Oc1cc(-n2ccc(C(=O)N(C)C3COC3)n2)nc(-c2noc3c2CCC[C@@]32CCCc3sc(N)c(C#N)c32)n1)[C@@H]1CCCN1C [II-194] | 37 |  |  |  |  |  |
| 430 | 1280 | 863 | > 152 | > 147 | CC(C)[C@@H]1CN(c2cc(O[C@@H](C)[C@@H]3CCCN3C)nc(-c3noc4c3CCC[C@@]43CCCc4sc(N)c(C#N)c43)n2)CCN1 [II-166] | 1180 |  |  |  |  |  |
| 28 | 9670 | 3240 | 116 (≈ 188 µM) | 105 (≈ 171 µM) | C[C@H](O)Cn1ncc(-c2cc(O[C@@H](C)[C@@H]3CCCN3C)nc(-c3noc4c3CCC[C@@]43CCCc4sc(N)c(C#N)c43)n2)n1 [II-134] | 35 |  |  |  |  |  |
| 13 | 2760 | 131 | > 127 | 39 (≈ 62.2 µM) | C[C@H](Oc1cc(-c2ccn([C@H]3CCOC3)n2)nc(-c2noc3c2CCC[C@@]32CCCc3sc(N)c(C#N)c32)n1)[C@@H]1CCCN1C [II-127] | 18 |  |  |  |  |  |
| 322 | 935 | 1090 | > 137 | > 133 | C[C@H](Oc1cc([C@H]2CCNC2)nc(-c2noc3c2CCC[C@@]32CCCc3sc(N)c(C#N)c32)n1)[C@@H]1CCCN1C [II-163] | 274 |  |  |  |  |  |
| 574 | 922 | 401 | > 140 | > 137 | C[C@H](Oc1cc(N2CCN[C@@H](C)C2)nc(-c2noc3c2CCC[C@@]32CCCc3sc(N)c(C#N)c32)n1)[C@@H]1CCCN1C [II-162] | 2120 |  |  |  |  |  |
| 26 | 10200 | 251 | 123 (≈ 196 µM) | 104 (≈ 166 µM) | C[C@H](Oc1cc(-n2cnc(C(=O)N(C)C)c2)nc(-c2noc3c2CCC[C@@]32CCCc3sc(N)c(C#N)c32)n1)[C@@H]1CCCN1C [II-126] | 189 |  |  |  |  |  |
| 678 | 1210 | 1230 | > 144 | > 146 | C[C@H](Oc1cc(N2C[C@H](C)N(C)[C@@H](C)C2)nc(-c2noc3c2CCC[C@@]32CCCc3sc(N)c(C#N)c32)n1)[C@@H]1CCCN1C [II-173] | 751 |  |  |  |  |  |
| 8 | 1150 | 39 | > 152 | 103 (≈ 164 µM) | C[C@H](Oc1cc(-n2ccc(C3(O)COC3)n2)nc(-c2noc3c2CCC[C@@]32CCCc3sc(N)c(C#N)c32)n1)[C@@H]1CCCN1C [II-189] | 51 |  |  |  |  |  |
| 133 | 483 | 246 | > 164 | > 137 | C[C@H](Oc1cc(C2=CCNCC2)nc(-c2noc3c2CCC[C@@]32CCCc3sc(N)c(C#N)c32)n1)[C@@H]1CCCN1C [II-164] | 1500 |  |  |  |  |  |
| 170 | 244 | 284 | 123 (≈ 197 µM) | 83 (≈ 133 µM) | C[C@H](Oc1cc(-n2cc3c(n2)CCN(C)C3)nc(-c2noc3c2CCC[C@@]32CCCc3sc(N)c(C#N)c32)n1)[C@@H]1CCCN1C [II-141] | 873 |  |  |  |  |  |
| 19 | 2700 | 459 | 3 (≈ 4.92 µM) | < 1 | C[C@H](Oc1cc(-c2cccc(C(N)=O)c2)nc(-c2noc3c2CCC[C@@]32CCCc3sc(N)c(C#N)c32)n1)[C@@H]1CCCN1C [II-133] | 202 |  |  |  |  |  |
